Test results reported in PubChem BioAssay AID330 (DTP/NCI, 2004).
Values joined by “and” are separate entries in the source; they are usually repeats but may differ in a detail not shown here. Equal values may be shown once. Toxic doses and inconclusive results are not listed.

System: P388 leukemia ip, CD2F1 mice, survival T/C
Test: NCI In Vivo Anticancer Drug Screen. Data for tumor model P388 Leukemia (intraperitoneal) in CD2F1 (CDF1) mice
Conditions: endpoint: median survival time, higher = longer survival
Outline: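 Mice carrying the transplanted tumor received test compound or vehicle. Survival was recorded in each group, and the value is the treated-group measurement divided by that of the vehicle-treated control group.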

[1] = dose: 50.0 mg/kg/injection, schedule: Q01DX009 (ip), vehicle: saline
[2] = dose: 50.0 mg/kg/injection, schedule: Q01DX005 (ip), vehicle: saline with Tween-80
[3] = dose: 100.0 mg/kg/injection, schedule: Q01DX005 (ip), vehicle: saline with Tween-80
[4] = dose: 50.0 mg/kg/injection, schedule: Q01DX009 (ip), vehicle: Klucel (hydroxypropylcellulose) (HPC)
[5] = dose: 50.0 mg/kg/injection, schedule: Q01DX005 (ip), vehicle: Klucel (hydroxypropylcellulose) (HPC)
[6] = dose: 100.0 mg/kg/injection, schedule: Q01DX005 (ip), vehicle: Klucel (hydroxypropylcellulose) (HPC)
[7] = dose: 200.0 mg/kg/injection, schedule: Q01DX005 (ip), vehicle: Klucel (hydroxypropylcellulose) (HPC)
[8] = dose: 60.0 mg/kg/injection, schedule: Q01DX005 (ip), vehicle: saline with Tween-80
[9] = dose: 120.0 mg/kg/injection, schedule: Q01DX005 (ip), vehicle: saline with Tween-80
[10] = dose: 240.0 mg/kg/injection, schedule: Q01DX005 (ip), vehicle: saline with Tween-80

COc1cccc2c1C(=O)c1c(O)c3c(c(O)c1C2=O)C[C@@](O)(/C(C)=N/NC(=O)c1ccc(-c2ccccc2)cc1)C[C@@H]3OC1CC(N)C(O)C(C)O1 (some centres undefined)
T/C (dose: 0.12 mg/kg/injection, schedule: Q01DX009 (ip), vehicle: water): 107 % of control
T/C (dose: 0.5 mg/kg/injection, schedule: Q01DX009 (ip), vehicle: water): 151 % of control
T/C (dose: 1.0 mg/kg/injection, schedule: Q01DX009 (ip), vehicle: water): 157 % of control
T/C (dose: 2.0 mg/kg/injection, schedule: Q01DX009 (ip), vehicle: water): 163 % of control and 169 % of control
T/C (dose: 3.13 mg/kg/injection, schedule: Q01DX009 (ip), vehicle: water): 192 % of control
T/C (dose: 4.0 mg/kg/injection, schedule: Q01DX009 (ip), vehicle: water): 190 % of control
T/C (dose: 6.0 mg/kg/injection, schedule: Q04DX003 (ip), vehicle: water): 106 % of control
T/C (dose: 6.25 mg/kg/injection, schedule: Q01DX001 (ip), vehicle: water): 151 % of control
T/C (dose: 6.25 mg/kg/injection, schedule: Q01DX009 (ip), vehicle: water): 109 % of control
T/C (dose: 8.0 mg/kg/injection, schedule: Q01DX009 (ip), vehicle: water): 98 % of control and 91 % of control
T/C (dose: 12.5 mg/kg/injection, schedule: Q01DX001 (ip), vehicle: water): 163 % of control
T/C (dose: 24.0 mg/kg/injection, schedule: Q04DX003 (ip), vehicle: water): 165 % of control
T/C (dose: 25.0 mg/kg/injection, schedule: Q01DX001 (ip), vehicle: water): 116 % of control
T/C (dose: 96.0 mg/kg/injection, schedule: Q04DX003 (ip), vehicle: water): 98 % of control

N=C(N)C1CC1
T/C (dose: 12.5 mg/kg/injection, schedule: Q01DX009 (ip), vehicle: saline): 100 % of control
T/C (dose: 25.0 mg/kg/injection, schedule: Q01DX009 (ip), vehicle: saline): 100 % of control
T/C [1]: 102 % of control

CN(C)c1cccc(NC(=O)CC#N)c1
T/C [2]: 93 % of control
T/C [3]: 93 % of control

CCCCCCCCCCCC(=O)C(=O)c1ccc(O)cc1O
T/C [4]: 110 % of control
T/C (dose: 100.0 mg/kg/injection, schedule: Q01DX009 (ip), vehicle: Klucel (hydroxypropylcellulose) (HPC)): 107 % of control
T/C (dose: 200.0 mg/kg/injection, schedule: Q01DX009 (ip), vehicle: Klucel (hydroxypropylcellulose) (HPC)): 109 % of control

CCCCC(=O)NN(Cn1c(=S)sc2ccccc21)Cn1c(=S)sc2ccccc21
T/C (dose: 1.56 mg/kg/injection, schedule: Q01DX009 (ip), vehicle: Klucel (hydroxypropylcellulose) (HPC)): 88 % of control
T/C (dose: 3.12 mg/kg/injection, schedule: Q01DX009 (ip), vehicle: Klucel (hydroxypropylcellulose) (HPC)): 106 % of control and 88 % of control
T/C (dose: 6.25 mg/kg/injection, schedule: Q01DX009 (ip), vehicle: Klucel (hydroxypropylcellulose) (HPC)): 100 % of control and 86 % of control and 93 % of control
T/C (dose: 12.5 mg/kg/injection, schedule: Q01DX009 (ip), vehicle: Klucel (hydroxypropylcellulose) (HPC)): 90 % of control and 97 % of control
T/C [4]: 88 % of control and 91 % of control

O=C(O)c1cccc2c1C(=O)c1ccccc1-2
T/C [5]: 95 % of control
T/C [6]: 100 % of control
T/C [7]: 105 % of control

CC1(C)OC(CC(=O)O)C23COC(C(=O)C4(C)C2CCC2(C)C(C5CCOC5)OC(=O)C5OC524)C13 (centres undefined)
T/C (dose: 0.5 mg/kg/injection, schedule: Q01DX009 (ip), vehicle: saline + alcohol): 103 % of control
T/C (dose: 1.0 mg/kg/injection, schedule: Q01DX009 (ip), vehicle: saline + alcohol): 101 % of control
T/C (dose: 2.0 mg/kg/injection, schedule: Q01DX009 (ip), vehicle: saline + alcohol): 100 % of control
T/C (dose: 4.0 mg/kg/injection, schedule: Q01DX009 (ip), vehicle: saline + alcohol): 103 % of control

O=[N+]([O-])c1cc(CNCCO)c(O)c2ncccc12
T/C [8]: 91 % of control
T/C [9]: 93 % of control
T/C [10]: 110 % of control

Cc1cc2c(cc1C)NS(=O)(=O)N2
T/C [8]: 102 % of control
T/C [9]: 109 % of control
T/C [10]: 102 % of control

CCOC(OCC)c1ccc(Cl)cc1
T/C (dose: 100.0 mg/kg/injection, schedule: Q04DX003 (ip), vehicle: saline with Tween-80): 100 % of control
T/C (dose: 200.0 mg/kg/injection, schedule: Q04DX003 (ip), vehicle: saline with Tween-80): 105 % of control
T/C (dose: 400.0 mg/kg/injection, schedule: Q04DX003 (ip), vehicle: saline with Tween-80): 106 % of control

c1cc(-c2cc3ccc(C4=NCCN4)cc3[nH]2)ccc1C1=NCCN1
T/C (dose: 6.25 mg/kg/injection, schedule: Q04DX003 (ip), vehicle: saline): 116 % of control
T/C (dose: 12.5 mg/kg/injection, schedule: Q04DX003 (ip), vehicle: saline): 118 % of control
T/C (dose: 50.0 mg/kg/injection, schedule: Q04DX003 (ip), vehicle: saline): 154 % of control and 171 % of control and 172 % of control

C=C(C)C(=O)Nc1ccc2nn(-c3ccccc3O)nc2c1
T/C [1]: 93 % of control
T/C (dose: 100.0 mg/kg/injection, schedule: Q01DX009 (ip), vehicle: saline): 86 % of control
T/C (dose: 200.0 mg/kg/injection, schedule: Q01DX009 (ip), vehicle: saline): 94 % of control

CCc1cc2c(=O)[nH]c(-c3cccnc3)nc2s1
T/C [5]: 106 % of control
T/C [6]: 100 % of control
T/C [7]: 88 % of control

C=CCC1CCC/C1=N\O (centres undefined)
T/C [8]: 105 % of control
T/C [9]: 104 % of control
T/C [10]: 100 % of control

O=c1[nH]nc(SCc2ccccc2Cl)c(=O)[nH]1
T/C (dose: 25.0 mg/kg/injection, schedule: Q01DX005 (ip), vehicle: Klucel (hydroxypropylcellulose) (HPC)): 89 % of control
T/C [5]: 89 % of control
T/C [6]: 86 % of control

O=C(n1ccnc1)C(F)(F)C(F)(F)F
T/C (dose: 60.0 mg/kg/injection, schedule: Q01DX005 (ip), vehicle: saline): 95 % of control
T/C (dose: 120.0 mg/kg/injection, schedule: Q01DX005 (ip), vehicle: saline): 101 % of control
T/C (dose: 240.0 mg/kg/injection, schedule: Q01DX005 (ip), vehicle: saline): 96 % of control

Cc1cc(=O)oc2cc(NC(=O)C(CCCN=C(N)N)NC(=O)OCc3ccccc3)ccc12 (centres undefined)
T/C [2]: 97 % of control
T/C [3]: 98 % of control
T/C (dose: 200.0 mg/kg/injection, schedule: Q01DX005 (ip), vehicle: saline with Tween-80): 94 % of control
